Source: ChEMBL document CHEMBL3580659, “One-pot multicomponent synthesis of indole incorporated thiazolylcoumarins and their antibacterial, anticancer and DNA cleavage studies” (2015)

Assays:
Assay type in all cases: functional
[1] = tested on: UACC-257; test: Cytotoxicity against human UACC257 cells after 48 hrs by sulforhodamine B assay; conditions: UACC-257, 48 h
[2] = tested on: BT-549; test: Cytotoxicity against human BT549 cells assessed as cell growth level at 1 uM after 48 hrs by sulforhodamine B assay
[3] = tested on: SK-MEL-5; test: Cytotoxicity against human SK-MEL-5 cells assessed as cell growth level at 10 nM after 48 hrs by sulforhodamine B assay
[4] = tested on: HOP-92; test: Cytotoxicity against human HOP92 cells assessed as cell growth level at 10 nM after 48 hrs by sulforhodamine B assay
[5] = tested on: OVCAR-5; test: Cytotoxicity against human OVCAR5 cells assessed as cell growth level at 10 uM after 48 hrs by sulforhodamine B assay
[6] = tested on: NCI-H23; test: Cytotoxicity against human NCI-H23 cells assessed as cell growth level at 100 nM after 48 hrs by sulforhodamine B assay
[7] = Cytotoxicity against human NCI-ADR-RES cells assessed as cell growth level at 100 nM after 48 hrs by sulforhodamine B assay
[8] = tested on: U-251; test: Cytotoxicity against human U251 cells assessed as cell growth level at 100 nM after 48 hrs by sulforhodamine B assay
[9] = tested on: SF-539; test: Cytotoxicity against human SF539 cells assessed as cell growth level at 100 nM after 48 hrs by sulforhodamine B assay
[10] = tested on: SW-620; test: Cytotoxicity against human SW620 cells after 48 hrs by sulforhodamine B assay; conditions: SW-620, 48 h
[11] = tested on: NCI-H226; test: Cytotoxicity against human NCI-H226 cells assessed as cell growth level at 100 uM after 48 hrs by sulforhodamine B assay
[12] = tested on: MCF7; test: Cytotoxicity against human MCF7 cells assessed as cell growth level at 100 uM after 48 hrs by sulforhodamine B assay
[13] = tested on: BT-549; test: Cytotoxicity against human BT549 cells assessed as cell growth level at 100 nM after 48 hrs by sulforhodamine B assay
[14] = tested on: SF-539; test: Cytotoxicity against human SF539 cells after 48 hrs by sulforhodamine B assay; conditions: SF-539, 48 h
[15] = tested on: NCI-H23; test: Cytotoxicity against human NCI-H23 cells assessed as cell growth level at 10 uM after 48 hrs by sulforhodamine B assay
[16] = tested on: HCT-116; test: Cytotoxicity against human HCT116 cells assessed as cell growth level at 100 nM after 48 hrs by sulforhodamine B assay
[17] = tested on: A549; test: Cytotoxicity against human A549/ATCC cells assessed as cell growth level at 100 uM after 48 hrs by sulforhodamine B assay
[18] = tested on: PC-3; test: Cytotoxicity against human PC3 cells after 48 hrs by sulforhodamine B assay; conditions: PC-3, 48 h
[19] = tested on: CAKI-1; test: Cytotoxicity against human CAKI-1 cells assessed as cell growth level at 1 uM after 48 hrs by sulforhodamine B assay
[20] = tested on: COLO 205; test: Cytotoxicity against human COLO205 cells assessed as cell growth level at 100 nM after 48 hrs by sulforhodamine B assay
[21] = tested on: SK-MEL-5; test: Cytotoxicity against human SK-MEL-5 cells assessed as cell growth level at 100 nM after 48 hrs by sulforhodamine B assay
[22] = tested on: SNB-75; test: Cytotoxicity against human SNB75 cells assessed as cell growth level at 100 uM after 48 hrs by sulforhodamine B assay
[23] = tested on: SR; test: Cytotoxicity against human SR cells after 48 hrs by sulforhodamine B assay
[24] = tested on: A549; test: Cytotoxicity against human A549/ATCC cells assessed as cell growth level at 10 nM after 48 hrs by sulforhodamine B assay
[25] = tested on: DU-145; test: Cytotoxicity against human DU145 cells after 48 hrs by sulforhodamine B assay; conditions: DU-145, 48 h
[26] = tested on: SK-MEL-28; test: Cytotoxicity against human SK-MEL-28 cells assessed as cell growth level at 10 nM after 48 hrs by sulforhodamine B assay
[27] = tested on: OVCAR-3; test: Cytotoxicity against human OVCAR3 cells assessed as cell growth level at 10 nM after 48 hrs by sulforhodamine B assay
[28] = tested on: SF-539; test: Cytotoxicity against human SF539 cells assessed as cell growth level at 10 nM after 48 hrs by sulforhodamine B assay
[29] = tested on: OVCAR-4; test: Cytotoxicity against human OVCAR4 cells after 48 hrs by sulforhodamine B assay; conditions: OVCAR-4, 48 h
[30] = tested on: HT-29; test: Cytotoxicity against human HT-29 cells assessed as cell growth level at 100 uM after 48 hrs by sulforhodamine B assay
[31] = tested on: CCRF-CEM; test: Cytotoxicity against human CCRF-CEM cells after 48 hrs by sulforhodamine B assay
[32] = tested on: RXF 393; test: Cytotoxicity against human RXF393 cells assessed as cell growth level at 10 nM after 48 hrs by sulforhodamine B assay
[33] = tested on: UO-31; test: Cytotoxicity against human UO31 cells assessed as cell growth level at 10 uM after 48 hrs by sulforhodamine B assay
[34] = tested on: UACC-257; test: Cytotoxicity against human UACC257 cells assessed as cell growth level at 10 nM after 48 hrs by sulforhodamine B assay
[35] = tested on: MDA-MB-468; test: Cytotoxicity against human MDA-MB-468 cells assessed as cell growth level at 10 nM after 48 hrs by sulforhodamine B assay
[36] = tested on: NCI-H522; test: Cytotoxicity against human NCI-H522 cells assessed as cell growth level at 10 uM after 48 hrs by sulforhodamine B assay
[37] = read-out: LC50 (the source's name)
[38] = read-out: pLC50 (the source's name) (converted)

O=c1oc2ccccc2cc1-c1csc(N/N=C/c2c[nH]c3ccccc23)n1
GI50 ([1]; read-out: GI50): 2.15 µM | CC50 [1, 37]: > 100 µM | TGI ([1]; read-out: TGI): 5.63 µM | GI50 ([1]; read-out: pGI50 (converted)): 2.14 µM | CC50 [1, 38]: > 100 µM | TGI ([1]; read-out: pTGI (converted)): 5.62 µM | Activity [2]: 58% | Activity [3]: 96% | Activity [4]: 100% | Activity [5]: 55.24% | Activity [6]: 88% | Activity [7]: 110% | Activity [8]: 108% | Activity [9]: 88% | GI50 ([10]; read-out: GI50): 2.19 µM | CC50 [10, 37]: 70.9 µM | TGI ([10]; read-out: TGI): 5.24 µM | GI50 ([10]; read-out: pGI50 (converted)): 2.19 µM | CC50 [10, 38]: 70.8 µM | TGI ([10]; read-out: pTGI): 5.25 µM | Activity [11]: -31% | Activity [12]: -60% | Activity [13]: 88% | GI50 ([14]; read-out: GI50): 1.58 µM | CC50 [14, 37]: 7.25 µM | TGI ([14]; read-out: TGI): 3.38 µM | GI50 ([14]; read-out: pGI50 (converted)): 1.58 µM | CC50 [14, 38]: 7.24 µM | TGI ([14]; read-out: pTGI (converted)): 3.39 µM | Activity [15]: 25.93% | Activity [16]: 91% | Activity [17]: -29% | GI50 ([18]; read-out: GI50): 0.828 µM | CC50 [18, 37]: 7.63 µM | TGI ([18]; read-out: TGI): 2.66 µM | GI50 ([18]; read-out: pGI50 (converted)): 0.832 µM | CC50 [18, 38]: 7.59 µM | TGI ([18]; read-out: pTGI (converted)): 2.63 µM | Activity [19]: 88% | Activity [20]: 115% | Activity [21]: 88% | Activity [22]: -53% | GI50 ([23]; read-out: GI50): 1.83 µM | LC50 ([23]; read-out: LC50): > 100 µM | TGI ([23]; read-out: TGI): 4.92 µM | GI50 ([23]; read-out: pGI50 (converted)): 1.82 µM | LC50 ([23]; read-out: pLC50 (converted)): > 100 µM | TGI ([23]; read-out: pTGI (converted)): 4.9 µM | Activity [24]: 94% | GI50 ([25]; read-out: GI50): 1.8 µM | CC50 [25, 37]: > 100 µM | TGI ([25]; read-out: TGI): 4.27 µM | GI50 ([25]; read-out: pGI50 (converted)): 1.82 µM | CC50 [25, 38]: > 100 µM | TGI ([25]; read-out: pTGI (converted)): 4.27 µM | Activity [26]: 94% | Activity [27]: 99% | Activity [28]: 95% | GI50 ([29]; read-out: GI50): 1.37 µM | CC50 [29, 37]: > 100 µM | TGI ([29]; read-out: TGI): 5.87 µM | GI50 ([29]; read-out: pGI50 (converted)): 1.38 µM | CC50 [29, 38]: > 100 µM | TGI ([29]; read-out: pTGI (converted)): 5.89 µM | Activity [30]: -81% | GI50 ([31]; read-out: GI50): 0.33 µM | LC50 ([31]; read-out: LC50): > 100 µM | TGI ([31]; read-out: TGI): 1.78 µM | GI50 ([31]; read-out: pGI50 (converted)): 0.339 µM | LC50 ([31]; read-out: pLC50 (converted)): > 100 µM | TGI ([31]; read-out: pTGI (converted)): 1.78 µM | Activity [32]: 98% | Activity [33]: -90.51% | Activity [34]: 96% | Activity [35]: 94% | Activity [36]: -77.8%
